Measured values as given in PMC10195864, “Stereochemical engineering yields a multifunctional peptide macrocycle inhibitor of Akt2 by fine-tuning macrocycle-cell membrane interactions” (Communications Chemistry, 2023).
Values joined by “and” are separate entries in the source; they are usually repeats but may differ in a detail not shown here. Equal entries are not always repeated. “Also recorded” adds a separate entry of the source. Where two headings read alike, the source gives them in different places. Positions of bridges follow the written chain, without caps; N, C: chain ends. Non-standard residues stand in square brackets, D forms with d. Residues, ends and D or L forms follow the SMILES beside them. R8 = C=CCCCCCC[C@@](C)(N)C(=O)O; S5 = C=CCCC[C@](C)(N)C(=O)O

Key:
[1] = molecular target: T1, pAkt2 (active His6-tagged Akt2) (Homo sapiens, UniProt P31751); test: ELISA for peptides against full-length pAkt2 protein (serial dilution); format: binding; conditions: biotinylated ligand immobilized, His6-pAkt2 titrated
T1 construct: purchased Abcam
T1 sequence (P31751 whole entry): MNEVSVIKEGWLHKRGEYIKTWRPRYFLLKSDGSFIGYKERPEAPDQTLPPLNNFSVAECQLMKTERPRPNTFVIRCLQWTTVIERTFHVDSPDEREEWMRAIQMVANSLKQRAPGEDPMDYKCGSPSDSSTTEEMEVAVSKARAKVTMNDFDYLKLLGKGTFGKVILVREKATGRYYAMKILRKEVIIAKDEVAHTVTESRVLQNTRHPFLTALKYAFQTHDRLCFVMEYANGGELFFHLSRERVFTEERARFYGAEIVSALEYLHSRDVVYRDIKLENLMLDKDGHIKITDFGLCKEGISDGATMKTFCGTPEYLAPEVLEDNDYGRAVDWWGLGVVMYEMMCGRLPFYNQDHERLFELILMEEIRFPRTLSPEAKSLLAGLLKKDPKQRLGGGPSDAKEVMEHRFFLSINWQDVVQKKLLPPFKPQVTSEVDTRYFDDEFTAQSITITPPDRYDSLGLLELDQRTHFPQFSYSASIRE
Method: A total of 2 μM solution of each biotinylated peptide was prepared in binding buffer. A total of 100 μL of each solution was added to each well of a High-Capacity Streptavidin 96 well plate (Thermo Scientific), and the plate was shaken for 2 h at room temperature. The wells were blocked with 5% milk in 25 mM tris chloride, pH = 7.4, 150 mM NaCl and 0.05% Tween 20 (TBST). The wells were washed with binding buffer five times. Serial dilutions of active His6-tagged Akt2 were made in the binding buffer. A total of 100 μL of each solution was added per well, and the plate was shaken overnight at 4 °C. The wells were washed three times with the binding buffer, then treated for an hour with a 1:1000 dilution of anti 6X His mouse monoclonal [HIS.H8] antibody. A 1:10,000 dilution of goat anti-mouse antibody-Horse Radish Peroxide conjugate in binding buffer was added to the wells for an hour. The plate was washed three times with TBST and once with TBS (25 mM tris chloride, pH = 7.5, 150 mM NaCl), treated with TMB substrate (KPL), and quenched with sulfuric acid, and the absorbance at 450 nm wavelength measured. From the absorbance values at 450 nm wavelength (A450) for each protein concentration, the corresponding blank A450 (no ligand immobilized, same concentration of protein added) was subtracted. They were then fitted by non-linear regression in GraphPad Prism 6.

recombinant Akt3 = system: recombinant Akt3; set-up: method as in PMID 25329478; conditions: recombinant Akt; cited from earlier work
pAkt2 = molecular target: T2, pAkt2 (Homo sapiens, UniProt P31751); test: Protein selectivity ELISA, 25 nM protein; format: binding; conditions: for binding to pAkt2: single-point ELISA, 25 nM protein, A450
T2 construct: purchased Abcam
T2 sequence (P31751 whole entry): as above
Method: A total of 1.25 μM biotinylated ligand was prepared by diluting the 1 mM stock in binding buffer (0.1% BSA, 25 mM trisCl, pH = 7.5, 150 mM NaCl, 0.05% Tween20). The prepared ligand solution or 0.125% DMSO (buffer control) in binding buffer was immobilized on a High-Capacity Streptavidin 96 well plate (Thermo Scientific). After washing the excess ligand, the plate was blocked overnight with 1% BSA in TBST. […] After three washes with the binding buffer, the plate was treated for an hour with a 1:1000 dilution of anti-His6 mouse monoclonal antibody in the binding buffer. A 1:10,000 dilution of goat anti-mouse antibody conjugated to Horse Radish Peroxide in binding buffer was added to the wells. The plates were washed four times, five minutes each, with TBST and once with TBS. The color was developed by adding TMB substrate to each well. The reaction was quenched with 0.5 M H2SO4. The absorbance values at 450 nm (A450) were measured on a 96-well plate reader. The Net A450 was obtained by subtracting the absorbance value for the blank control (no immobilized ligand) from each triplicate value obtained for the ligand–epitope interaction.

[2] = molecular target: T3, target phosphopeptide epitope, Akt2 amino acids 450–481 (pS474) (Homo sapiens, UniProt P31751); test: Epitope selectivity ELISA, 2.5 µM His6-tagged epitope; format: binding; conditions: 1.25 µM ligand immobilized, 2.5 µM epitope
T3 construct: made in house; host or cells: chemical solid-phase peptide synthesis
T3 sequence (P31751 450-481 limits assumed): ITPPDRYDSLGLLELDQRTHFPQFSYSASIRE
Method: A total of 1.25 μM biotinylated ligand was prepared by diluting the 1 mM stock in binding buffer (0.1% BSA, 25 mM trisCl, pH = 7.5, 150 mM NaCl, 0.05% Tween20). The prepared ligand solution or 0.125% DMSO (buffer control) in binding buffer was immobilized on a High-Capacity Streptavidin 96 well plate (Thermo Scientific). After washing the excess ligand, the plate was blocked overnight with 1% BSA in TBST. 2.5 μM solutions of the His6-tagged target phosphopeptide epitope, Akt2 amino acids 450–481, or His6-tagged scrambled peptide was added to each of the wells and incubated overnight. After three washes with the binding buffer, the plate was treated for an hour with a 1:1000 dilution of anti-His6 mouse monoclonal antibody in the binding buffer. A 1:10,000 dilution of goat anti-mouse antibody conjugated to Horse Radish Peroxide in binding buffer was added to the wells. The plates were washed four times, five minutes each, with TBST and once with TBS. […] The absorbance values at 450 nm (A450) were measured on a 96-well plate reader. The Net A450 was obtained by subtracting the absorbance value for the blank control (no immobilized ligand) from each triplicate value obtained for the ligand–epitope interaction. […]
-FPQF(pS)YSAS-IRE and the scrambled epitope His6–Peg2-ITPPDRYDSLGLLELQRTH-YFFASQPSS-IRE overnight. […] The absorbance at 450 nm is measured to quantitate the binding. […]

[3] = molecular target: T1, pAkt2 (active His6-tagged Akt2); set-up: method as in PMID 26377818; conditions: read-out: EC50 against pAkt2; cited from earlier work
[4] = molecular target: macrocycle C2, Cy(YYTYTG-rcm); test: ELISA; biotinylated peptide (2 μM) immobilised on a streptavidin plate; serial dilutions of active His6-tagged Akt2 in binding buffer (0.1% BSA, 25 mM trisCl pH 7.5, 150 mM NaCl, 0.05% Tween20), overnight at 4 °C; detected with anti-His6 antibody; A450 fitted by non-linear regression

binding to pAkt2 (pAkt2)	Compound	also measured
–	C[C@@H](O)[C@@H]1NC(=O)[C@H](Cc2ccc(O)cc2)NC(=O)[C@H]([C@@H](C)O)NC(=O)[C@H](Cc2ccc(O)cc2)NC(=O)[C@H](Cc2ccc(O)cc2)NC(=O)[C@](C)(N)CCCCCCC=CCCC[C@@](C)(C(N)=O)NC(=O)CNC1=O [C2, Cy(YYTYTG-rcm)] (H-[R8]YYTYTG[S5]-NH2; staple 1-8; N-terminus and C-terminus assumed)	EC50 [1]: 44 nM and 42 nM
–	NC1(c2ccc(-c3nc4ccn5c(=O)[nH]nc5c4cc3-c3ccccc3)cc2)CCC1 [MK-2206]	inhibition of Akt3 relative to Akt1 and Akt2 (recombinant Akt3): five-fold less
higher binding than C2	Cy(4fF-4fF-TYTG-rcm)	–
higher signal than C2	Cy(4fF-YTYTG-rcm)	–
higher signal than C2	Cy(-Y4fF-TYTG-rcm)	–
decreases binding	Cy(YYT-4fF-TG-rcm)	–
binds to the target pAkt2 protein	Cy(YYTYT-Tz4) [C1]	selectivity for pAkt2 over other pAkt isoforms (pAkt2; 25 nM His6-pAkt1, pAkt2, pAkt3): selective for pAkt2 over the other two isoforms; binding to target phosphorylated chemical epitope [2]: better binding affinity for target chemical; also recorded: binds significantly better than the linear non-cyclized; also recorded: is a better binder than the latter; EC50 [3]: 120 nM
does not	Cy(YYTYTG-Tz4)	–
show no binding	Cy(YYTY’T’Grcm)	–
show no binding	Cy(Y’YTY’TGrcm)	–
–	full-length active His6-tagged Akt2, phosphorylated at Ser474 (pAkt2) (from UniProt P31751 1-481) (enzyme)	EC50 [4]: 44 nM
